Laboratory results as given in ChEMBL document CHEMBL5108044, “Discovery of a Novel Potent STAT3 Inhibitor HP590 with Dual p-Tyr705/Ser727 Inhibitory Activity for Gastric Cancer Treatment” (J Med Chem, 2022).
Activity calls are given as the source filed them. No cut-off for these calls is given here.

Experiments:
[1] = target: T1, Signal transducer and activator of transcription 3 (Homo sapiens, UniProt P40763); assay: Inhibition of STAT3 phosphorylation at Tyr705 residue in human AGS cells upto 40 nM incubated upto 24 hrs by Western blotting analysis; type: cell-based
T1 sequence (P40763 whole entry): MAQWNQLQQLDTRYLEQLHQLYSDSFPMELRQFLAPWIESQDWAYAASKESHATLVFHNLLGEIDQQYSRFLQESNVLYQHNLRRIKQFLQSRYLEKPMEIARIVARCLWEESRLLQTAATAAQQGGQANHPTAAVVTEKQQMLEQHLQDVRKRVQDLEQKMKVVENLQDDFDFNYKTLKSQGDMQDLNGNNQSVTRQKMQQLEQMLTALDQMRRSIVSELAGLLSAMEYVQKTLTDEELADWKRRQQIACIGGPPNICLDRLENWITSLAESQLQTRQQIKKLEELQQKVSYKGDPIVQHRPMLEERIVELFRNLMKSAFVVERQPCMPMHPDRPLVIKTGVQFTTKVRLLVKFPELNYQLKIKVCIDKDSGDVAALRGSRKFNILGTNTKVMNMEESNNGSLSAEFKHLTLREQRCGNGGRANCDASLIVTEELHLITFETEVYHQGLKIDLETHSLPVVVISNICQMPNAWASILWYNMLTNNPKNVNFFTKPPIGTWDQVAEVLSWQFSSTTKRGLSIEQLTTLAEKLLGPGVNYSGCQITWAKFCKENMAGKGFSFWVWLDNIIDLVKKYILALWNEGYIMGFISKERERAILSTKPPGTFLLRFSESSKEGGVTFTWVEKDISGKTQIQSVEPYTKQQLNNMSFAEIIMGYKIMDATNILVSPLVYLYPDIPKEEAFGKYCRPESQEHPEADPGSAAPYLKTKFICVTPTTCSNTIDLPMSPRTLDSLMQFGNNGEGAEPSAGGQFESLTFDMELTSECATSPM

[2] = target: T1, Signal transducer and activator of transcription 3; assay: Inhibition of STAT3 phosphorylation at Ser727 residue in human AGS cells upto 40 nM incubated upto 24 hrs by Western blotting analysis; type: cell-based
[3] = tested on: AGS; assay: Induction of apoptosis in human AGS cells assessed as late apoptic cells 5 nM incubated for 48 hrs by FITC-annexin V/propidium iodide staining based flow cytometry (reference value: 9.56%); type: functional
[4] = Toxicity in BALB/c nude mouse xenografted with human MKN-45 cells assessed as lung damage at 25 to 50 mg/kg, po qd administered for 5 weeks by H and E staining based analysis; type: organism-based; details: in vivo, 840 h, dose 25-50 mg/kg
[5] = tested on: MKN-45; assay: Antitumor activity against human MKN-45 cells xenografted in BALB/c nude mouse assessed as reduction in Ki67 gene expression at 25 to 50 mg/kg, po qd administered for 5 weeks immunohistochemical analysis; type: functional, organism-based; details: dose 25-50 mg/kg
[6] = tested on: MKN-45; assay: Induction of apoptosis in human MKN-45 cells assessed as necrotic cells 20 nM incubated for 48 hrs by FITC-annexin V/propidium iodide staining based flow cytometry (reference value: 10.3%); type: functional
[7] = target: T1, Signal transducer and activator of transcription 3; assay: Inhibition of STAT3 phosphorylation at Ser727 residue in human MKN-45 cells upto 40 nM incubated upto 24 hrs by Western blotting analysis; type: cell-based
[8] = tested on: AGS; assay: Induction of apoptosis in human AGS cells assessed as late apoptic cells 20 nM incubated for 48 hrs by FITC-annexin V/propidium iodide staining based flow cytometry (reference value: 9.56%); type: functional
[9] = tested on: MKN-45; assay: Induction of apoptosis in human MKN-45 cells assessed as late apoptic cells 5 nM incubated for 48 hrs by FITC-annexin V/propidium iodide staining based flow cytometry (reference value: 17.9%); type: functional
[10] = Toxicity in […] mouse xenografted with human MKN-45 cells assessed as kidney damage at 25 to 50 mg/kg, po qd administered for 5 weeks by H and E staining based analysis; type: organism-based; details: in vivo, 840 h, dose 25-50 mg/kg
[11] = tested on: AGS; assay: Inhibition of colony formation in human AGS cells assessed as reduction in number of colonies incubated for 5 to 7 days by crystal violet staining based assay; type: functional, cell-based; details: dose <= 20.0 nM, time 5-7 day, DDE = dose-dependent effect
[12] = target: T1, Signal transducer and activator of transcription 3; assay: Inhibition of STAT3 in human MKN-45 cells assessed as downregulation of cyclin D1 expression at 10 to 40 nM incubated for 24 hrs by RT-PCR analysis; type: cell-based; details: dose 10-40 nM
[13] = tested on: NIH3T3; assay: Antiproliferative activity against […] cells assessed as cell viability measured upto 1 uM incubated for 72 hrs by MTS assay; type: toxicity, cell-based; details: mouse, nih3t3, 72 h
[14] = target: T1, Signal transducer and activator of transcription 3; assay: Inhibition of STAT3 phosphorylation at Ser727 residue in human AGS cells incubated upto 24 hrs by Western blotting analysis; type: cell-based; details: dose <= 40.0 nM, DDE = dose-dependent effect
[15] = tested on: MKN-45; assay: Induction of apoptosis in human MKN-45 cells assessed as late apoptic cells 10 nM incubated for 48 hrs by FITC-annexin V/propidium iodide staining based flow cytometry (reference value: 17.9%); type: functional
[16] = tested on: MKN-45; assay: Inhibition of colony formation in human MKN-45 cells assessed as reduction in number of colonies incubated for 5 to 7 days by crystal violet staining based assay; type: functional, cell-based; details: dose <= 20.0 nM, time 5-7 day, DDE = dose-dependent effect
[17] = Elimination half life in ICR mouse plasma at 1 mg/kg, iv measured up to 24 hrs by LC-MS/MS analysis; type: ADME, organism-based; details: read-out: beta t1/2 (converted)
[18] = tested on: AGS; assay: Induction of apoptosis in human AGS cells assessed as late apoptic cells 10 nM incubated for 48 hrs by FITC-annexin V/propidium iodide staining based flow cytometry (reference value: 9.56%); type: functional
[19] = AUC (0 to infinity) in ICR mouse plasma at 1 mg/kg, iv measured up to 24 hrs by LC-MS/MS analysis; type: ADME, organism-based; set-up: time < 24 hrs, dose 1 mg/kg, route iv
[20] = AUC (0 to t) in ICR mouse plasma at 1 mg/kg, iv measured up to 24 hrs by LC-MS/MS analysis; type: ADME, organism-based; set-up: dose 1 mg/kg, time < 24 hrs, route iv
[21] = tested on: MKN-45; assay: Inhibition of mitochondrial respiration in human MKN-45 cells assessed as decrease in basal oxygen consumption rate at 1 to 100 nM incubated for 1 hr by Seahorse XF24 extracellular flux analyzer; type: functional, cell-based; details: dose 1-100 nM
[22] = target: Cytochrome P450 2C19 (Homo sapiens, UniProt P33261); assay: Inhibition of CYP2C19 in human liver microsome; type: ADME, microsomes
Sequence of Cytochrome P450 2C19 (P33261 whole entry): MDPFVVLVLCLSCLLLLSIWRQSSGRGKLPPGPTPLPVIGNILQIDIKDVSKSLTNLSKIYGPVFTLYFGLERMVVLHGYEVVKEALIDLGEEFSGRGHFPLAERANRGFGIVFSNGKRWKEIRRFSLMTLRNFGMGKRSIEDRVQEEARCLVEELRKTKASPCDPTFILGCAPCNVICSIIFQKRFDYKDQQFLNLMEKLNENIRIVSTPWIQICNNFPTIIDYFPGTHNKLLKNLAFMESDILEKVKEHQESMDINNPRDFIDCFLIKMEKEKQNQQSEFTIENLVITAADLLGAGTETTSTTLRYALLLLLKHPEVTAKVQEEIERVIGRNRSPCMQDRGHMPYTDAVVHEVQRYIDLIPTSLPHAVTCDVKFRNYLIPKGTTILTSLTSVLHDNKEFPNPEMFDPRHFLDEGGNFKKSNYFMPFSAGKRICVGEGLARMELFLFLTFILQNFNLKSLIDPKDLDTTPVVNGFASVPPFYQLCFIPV

[23] = tested on: MGC-803; assay: Antiproliferative activity against human MGC-803 cells assessed as reduction in cell viability incubated for 72 hrs by MTS assay; type: functional, cell-based; details: MGC-803, 72 h
[24] = tested on: AGS; assay: Inhibition of colony formation in STAT3 knockdown human AGS cells assessed as reduction in number of colonies incubated for 5 to 7 days by crystal violet staining based assay; type: functional, cell-based; details: time 5-7 day
[25] = tested on: MKN-45; assay: Antitumor activity against human MKN-45 cells xenografted in po dosed BALB/c nude mouse assessed as decrease in tumor volume measured for 5 weeks; type: functional, organism-based; details: dose 25-50 mg/kg, DDE = dose-dependent effect
[26] = target: T1, Signal transducer and activator of transcription 3; assay: Inhibition of human recombinant STAT3 (127 to 722 residues) transcriptional activity expressed in HEK293T cells in presence of IL-6 by Dual-luciferase reporter gene assay; type: cell-based
[27] = target: Mitogen-activated protein kinase 3 (Homo sapiens, UniProt P27361); assay: Inhibition of ERK1 (unknown origin)
Sequence of Mitogen-activated protein kinase 3 (P27361 whole entry): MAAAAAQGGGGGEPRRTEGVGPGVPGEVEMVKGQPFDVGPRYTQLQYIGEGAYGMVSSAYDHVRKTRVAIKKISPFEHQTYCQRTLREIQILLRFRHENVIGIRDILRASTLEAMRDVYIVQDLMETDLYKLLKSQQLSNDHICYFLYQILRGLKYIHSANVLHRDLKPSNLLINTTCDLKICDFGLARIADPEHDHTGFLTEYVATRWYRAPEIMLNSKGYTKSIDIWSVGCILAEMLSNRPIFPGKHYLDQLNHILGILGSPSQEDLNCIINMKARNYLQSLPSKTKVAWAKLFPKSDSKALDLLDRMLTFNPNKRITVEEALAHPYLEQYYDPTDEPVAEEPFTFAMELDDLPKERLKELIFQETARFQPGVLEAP

[28] = target: T1, Signal transducer and activator of transcription 3; assay: Inhibition of STAT3 in human AGS cells assessed as downregulation of c-myc expression at 10 to 40 nM incubated for 24 hrs by RT-PCR analysis; type: cell-based; details: dose 10-40 nM
[29] = target: T1, Signal transducer and activator of transcription 3; assay: Binding affinity to human STAT3-SH2 domain (127 to 722 residues) assessed as dissociation constant by MST assay
[30] = target: T1, Signal transducer and activator of transcription 3; assay: Inhibition of STAT3 in human MKN-45 cells assessed as downregulation of cyclin D1 expression up to 40 nM by western blot analysis; type: cell-based; details: time <= 24.0 hrs, TDE = time-dependent effect
[31] = tested on: MKN-45; assay: In vivo inhibition of STAT3 phosphorylation at Ser727 residue in human MKN-45 cells xenografted in BALB/c nude mouse at 25 to 50 mg/kg, po qd administered for 5 weeks by western blot analysis; type: functional, organism-based; details: dose 25-50 mg/kg
[32] = target: T1, Signal transducer and activator of transcription 3; assay: Inhibition of STAT3 in human MKN-45 cells assessed as downregulation of Survivin expression at 10 to 40 nM incubated for 24 hrs by RT-PCR analysis; type: cell-based; details: dose 10-40 nM
[33] = tested on: MKN-45; assay: Induction of apoptosis in human MKN-45 cells assessed as necrotic cells 10 nM incubated for 48 hrs by FITC-annexin V/propidium iodide staining based flow cytometry (reference value: 10.3%); type: functional
[34] = target: T1, Signal transducer and activator of transcription 3; assay: Inhibition of STAT3 phosphorylation at Ser727 residue in human MGC-803 cells upto 40 nM by Western blotting analysis; type: cell-based; details: time <= 24.0 hrs, TDE = time-dependent effect
[35] = tested on: MKN-45; assay: Inhibition of STAT3 mediated oxidative phosphorylation at Ser727 residue in human MKN-45 cells assessed as reduction in oxidative phosphorylation at less than 40 nM incubated for 1 hr by Seahorse XF24 extracellular flux analyzer; type: functional, cell-based

inhibition [1]: 100%
inhibition [2]: 100%
inhibition [7]: 100%
inhibition [12]: Active
inhibition [14]: Dde
half-life [17]: 9.06 h
AUC(0-inf) [19]: 2270 ng·h/mL
AUC(0-t) at 24 h [20]: 1730 ng·h/mL
IC50 [22]: 15900 nM
IC50 [23]: 8.7 nM
IC50 [26]: 27.8 nM
IC50 [27]: > 10000 nM
inhibition [28]: Active
Kd [29]: 114 nM
inhibition [30]: Tde
inhibition [34]: Tde
Structure (SMILES): O=C(c1ccc(-c2noc(-c3ccc(C(F)(F)F)cc3)n2)cc1)N1CCN(Cc2ccc(OCC(F)(F)F)cc2)CC1
Activity [3]: 7.61%
Activity [4]: Non-Toxic
Activity [5]: Active
Activity [6]: 11.3%
Activity [8]: 27.1%
Activity [9]: 17.1%
Activity [10]: Non-Toxic
inhibition [11]: Dde
Activity [13]: Non-Toxic
Activity [15]: 19.6%
inhibition [16]: Dde
Activity [18]: 10.4%
inhibition [21]: Active
inhibition [24]: Active
Activity [25]: Dde
inhibition [31]: Active
inhibition [32]: Active
Activity [33]: 9.14%
inhibition [35]: Active
